≈ marks a conversion by molar mass, not a printed value. Where two headings read alike, the source gives them in different places.
What was measured:
[1] = system: NCI-60 tumor cell line panel; type: cell-based; settings: average over panel
[2] = Approximate solubility, solvent addition method; type: physicochemical; settings: thermodynamic from solid, room temperature
Protocol: A weighed sample was treated with aliquots of the test solvent at room temperature. Complete dissolution of the test material was determined by visual inspection. Solubility was estimated based on the total solvent used to provide complete dissolution. The actual solubility may be greater than the value calculated because of the use of solvent aliquots that were too large or due to a slow rate of dissolution. […] If complete dissolution was achieved as a result of only one aliquot addition, the solubility is expressed as “greater than.” Approximate solubilities were determined in various solvents at room temperature, with the results as provided in Table 2.

[3] = system: advanced (metastatic) cancer; test: Phase I dose-escalation trial, safety and anti-tumor activity; type: in vivo, human
Source text: Both the safety and anti-tumor activity of CDDO-Me were reviewed. In addition, the biological effects of CDDO-Me were characterized. […] Several patients (approximately 75% of evaluable patients) were considered to have stable disease (based on standard radiological and clinical criteria) at the first evaluation point following completion of the second treatment cycle. […] Five patients, including patients with melanoma and renal cell cancer, continued to show stable disease, some with evidence of regression of individual tumor lesions, after four cycles of treatment. Four patients were considered to have stable disease after at least six cycles of treatment.

[4] = system: MMP-9, TNFα, IL-8, and VEGF; test: Phase I trial, circulating inflammatory cytokines; type: in vivo, human
Protocol: Based on the known anti-inflammatory properties of CDDO-Me, circulating inflammatory cytokines were evaluated in patients in the Phase I trial. At doses as low as 5 mg/day, there was a reduction of several circulating pro-inflammatory cytokines and chemokines including MMP-9, TNFα, IL-8, and VEGF.

[5] = system: NQO1 (NAD(P)H:quinone oxidoreductase); test: Phase I trial, phase 2 gene products in peripheral blood mononuclear cells; type: in vivo, human; settings: doses of 10 mg/day and above
Source text: Additionally, phase 2 gene products, which include antioxidant and detoxification enzymes, have been monitored in peripheral blood mononuclear cells of patients in the Phase I study.

[6] = system: MCF-7/Her-2 Breast Cancer Xenograft; settings: i.v.; doses at or below the MTD; Konopleva et al. 2006; cited from earlier work
[7] = system: 4T1 Syngeneic Breast Cancer; settings: i.v., cited from earlier work
[8] = system: NCI-H460 Lung Cancer Xenograft; test: NCI-H460 Lung Cancer Xenograft; settings: p.o.
[9] = Phase I trial, serum creatinine; settings: day 21
[10] = system: DU-145 Prostate Cancer Xenograft; test: DU-145 Prostate Cancer Xenograft; settings: p.o.
[11] = system: COX-2, iNOS, phosphorylated STAT3 (pSTAT3); test: Phase I trial, tumor biopsy data
[12] = system: L3.6PL Pancreatic Cancer Xenograft; test: L3.6PL Pancreatic Cancer Xenograft; settings: i.v.

## COC(=O)[C@]12CCC(C)(C)C[C@H]1[C@H]1C(=O)C=C3[C@@]4(C)C=C(C#N)C(=O)C(C)(C)[C@@H]4CC[C@@]3(C)[C@]1(C)CC2 [CDDO methyl ester, methyl 2-cyano-3,12-dioxoleana-1,9(11)-dien-28-oate]
[1]
  IC50: ~35 nM
[2]; isopropanol/water (10:1), organic solvent or mixture, (10:1) Isopropanol/water
  solubility: 4 mg/mL (≈ 7.91 mM)
[2]; organic solvent or mixture, 1,4-Dioxane
  solubility: 21 mg/mL (≈ 41.5 mM)
[2]; organic solvent or mixture, ACN (acetonitrile)
  solubility: 66 mg/mL (≈ 131 mM)
[2]; organic solvent or mixture, Acetone
  solubility: 70 mg/mL (≈ 138 mM)
[2]; organic solvent or mixture, DCM (dichloromethane)
  solubility: > 194 mg/mL
[2]; organic solvent or mixture, EtOAc (ethyl acetate)
  solubility: 36 mg/mL (≈ 71.2 mM)
[2]; organic solvent or mixture, EtOH (ethanol)
  solubility: 4 mg/mL (≈ 7.91 mM)
[2]; organic solvent or mixture, Hexanes
  solubility: < 1 mg/mL
[2]; organic solvent or mixture, MTBE (tert-butyl methyl ether)
  solubility: 4 mg/mL (≈ 7.91 mM)
[2]; organic solvent or mixture, MeOH (methanol)
  solubility: 8 mg/mL (≈ 15.8 mM)
[2]; organic solvent or mixture, THF (tetrahydrofuran)
  solubility: 97 mg/mL (≈ 192 mM)
[2]; organic solvent or mixture, Toluene
  solubility: 38 mg/mL (≈ 75.1 mM)
[2]; Water
  solubility: < 0.1 mg/mL
[3]; 5 to 900 mg/day, 21 days on / 7 days rest
  drug-related adverse events: no significant drug-related adverse events reported
[3]; after at least six cycles of treatment
  patients considered to have stable disease: Four
[3]; after four cycles of treatment
  patients continuing to show stable disease: Five
[3]; capsules of micronized Form A, 5 to 900 mg/day, 21 days on / 7 days rest, 21 adult patients
  tolerability: very well tolerated
[3]; first evaluation point after the second treatment cycle
  evaluable patients with stable disease: approximately 75%
[3]; patients receiving at least 40 mg per day
  new metastases: No new metastases developed
[4]; 3 patients with elevated baseline TNF levels, 10, 20 and 40 mg per day
  circulating TNFα: reduced substantially or to below detectable limits
[4]; doses as low as 5 mg/day
  circulating pro-inflammatory cytokines and chemokines including MMP-9, TNFα, IL-8, and VEGF: reduction
[5]
  NQO1 in peripheral blood mononuclear cells: Significant induction
[6]
  DRUG ACTIVITY, regression: 15% regression
[7]; Delayed Treatment
  DRUG ACTIVITY, suppression: 67% suppression
[7]; Delayed Treatment, sacrifice on Day 95
  animals tumor-free at sacrifice: 33% of animals tumor-free at
[7]; Early Treatment, Ling et al. 2007
  DRUG ACTIVITY, suppression: 100% suppression
[7]; Early Treatment, sacrifice on Day 85
  animals tumor-free at sacrifice: All animals remained tumor-free
[8]
  comparison with radiation: Me as effective as radiation
[8]; doses at or below the MTD
  DRUG ACTIVITY, TGI (Tumor Growth Inhibition): 78% TGI^1
[9]
  patients with serum creatinine significantly lower than pre-treatment baseline: more than 80%
[10]; doses at or below the MTD
  DRUG ACTIVITY, TGI (Tumor Growth Inhibition): 77% TGI
[10]; multiple schedules
  TGI, multiple schedules tested: 60-77%
[11]; biopsies of several patients after two cycles
  tumor tissue levels of COX-2, iNOS and pSTAT3: pronounced reductions
[11]; several patients, after two cycles
  tumor cell death in biopsy: pronounced degree of tumor cell death
[12]
  comparison with Gemcitabine: CDDO-Me outperformed
[12]; doses at or below the MTD
  DRUG ACTIVITY, TGI (Tumor Growth Inhibition): 51% TGI

— patent US8633243B2, “Forms of CDDO methyl ester” (priority 2007, dated 2014)
